The target in assay [1] is T1, human plasmin (Homo sapiens, UniProt P00747). Description: biochemical. The following applies: read-out: Plasmin S-2251 (I50). In outline:
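Inhibitor in 0.05M Tris-HCl buffer, pH 7.4, was incubated with human plasmin added at 0.2 casein unit/ml (stock) at 37° C for 4 minutes, then stopped with 50% acetic acid. I50 (μmol) is the inhibitor concentration giving half the absorbance obtained without inhibitor.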

The target of assay [2] is T1, human plasmin. Description: Antiplasmin activity: inhibition of fibrin decomposition. The assay is classed as biochemical. To be noted: Table 2; concentration at which fibrin dissolution time is extended twice, pH 7.4, 37° C.; read-out: Plasmin Fibrin (I50). The procedure, abridged: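 Inhibitor in 0.18 M borate–physiological saline buffer, pH 7.4, received bovine fibrinogen (0.2% solution), human plasmin (0.3 casein unit/ml solution) and bovine thrombin (50 unit/ml solution) at 37 °C. Time for the resulting fibrin clot to dissolve was recorded.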

Assay [3] deals with T2, bovine thrombin (Bos taurus, UniProt P00735). Description: Antithrombin activity: inhibition of S-2238 decomposition. It counts as biochemical. The procedure, abridged:
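Inhibitor in 0.05 M Tris-HCl, pH 8.3, preincubated with S-2238 (0.2 mM stock) for 5 min at 37 °C. Bovine thrombin (0.2 unit/ml stock) then added, and p-nitroaniline release followed at 405 nm by initial velocity at 37 °C. I50 is the concentration halving the rate.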

Assay [4] deals with T2, bovine thrombin. Description: Antithrombin activity: inhibition of fibrin formation from fibrinogen. It counts as biochemical. In outline: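 Inhibitor in 0.18M borate-saline buffer pH 7.4 mixed with 0.2% bovine fibrinogen and 4 unit/ml bovine thrombin (stock levels) at 37° C; clotting time measured. I50 is the inhibitor concentration doubling coagulation time versus uninhibited control.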

For a further assay, the target named is T3, bovine trypsin (Bos taurus, UniProt P00760).
T3 sequence (P00760 24-246): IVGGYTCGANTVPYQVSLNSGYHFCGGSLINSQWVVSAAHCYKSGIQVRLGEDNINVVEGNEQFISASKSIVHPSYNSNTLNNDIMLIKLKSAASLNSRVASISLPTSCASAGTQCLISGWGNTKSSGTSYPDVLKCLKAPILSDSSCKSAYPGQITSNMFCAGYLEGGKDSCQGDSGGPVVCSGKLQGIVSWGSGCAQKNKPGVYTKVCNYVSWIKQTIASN
The assay can be described thus: Antitrypsin activity: inhibition of S-2238 decomposition. The assay is classed as biochemical. The following applies: Table 2; S-2238 substrate, pH 8.1, 37° C.; read-out: Trypsin S-2238 (I50).

In another assay the target is human plasma kallikrein (Homo sapiens, UniProt P03952). Description: Anti-plasma kallikrein activity: inhibition of S-2302 decomposition. It counts as biochemical. To be noted: Table 2; S-2302 substrate, pH 7.8, 37° C.; read-out: Plasma Kallikrein S-2302 (I50).
The target in another assay is human urokinase (Homo sapiens, UniProt P00749). The assay can be described thus: biochemical. To be noted: Table 2; S-2444 substrate, pH 8.8, 37° C.; read-out: Urokinase S-2444 (I50). The procedure, abridged: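 Inhibitor in 0.05M Tris-HCl pH 8.8 preincubated 5 min at 37° C with S-2444 (1 mM solution added), then human urokinase (500 unit/ml solution) added for 5 min at 37° C; stopped with 50% acetic acid. p-Nitroaniline read at 405 nm; I50 is concentration halving absorbance versus no inhibitor.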

[5] abbreviates: Table 2, 50% inhibition concentration, S-2251 substrate, pH 7.4, 37° C.
Setting [6] is: Table 2, S-2238 substrate, pH 8.3, 37° C., read-out: Thrombin S-2238 (I50).
The mark [7] stands for this setting: read-out: Thrombin Fibrinogen (I50), Table 2, concentration at which coagulation time of bovine fibrinogen is extended twice, pH 7.4, 37° C.

The structures appear in SMILES notation. Counter-ions that a name gives are not always drawn. Bounds are passed on as bounds.

human plasma kallikrein, sequence (P03952 391-638 limits assumed): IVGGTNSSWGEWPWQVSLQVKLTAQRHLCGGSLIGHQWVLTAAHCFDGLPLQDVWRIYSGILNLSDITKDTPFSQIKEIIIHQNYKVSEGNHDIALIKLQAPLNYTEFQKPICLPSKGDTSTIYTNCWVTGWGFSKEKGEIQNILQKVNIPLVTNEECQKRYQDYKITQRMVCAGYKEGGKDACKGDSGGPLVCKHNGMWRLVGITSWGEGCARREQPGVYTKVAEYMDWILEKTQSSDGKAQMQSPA
human plasma kallikrein, sequence (P03952 20-390 partner limits assumed): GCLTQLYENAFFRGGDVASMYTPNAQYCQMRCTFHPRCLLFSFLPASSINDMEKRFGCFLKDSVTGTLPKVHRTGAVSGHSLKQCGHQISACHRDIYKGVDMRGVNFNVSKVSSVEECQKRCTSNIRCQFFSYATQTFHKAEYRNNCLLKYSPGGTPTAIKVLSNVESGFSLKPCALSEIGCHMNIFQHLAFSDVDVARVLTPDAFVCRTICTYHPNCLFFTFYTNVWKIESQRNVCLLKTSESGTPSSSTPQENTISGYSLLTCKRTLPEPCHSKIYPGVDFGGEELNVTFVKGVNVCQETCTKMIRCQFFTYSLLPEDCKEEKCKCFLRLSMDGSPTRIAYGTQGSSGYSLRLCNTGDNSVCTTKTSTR
T1 sequence (P00747 581-810 limits assumed): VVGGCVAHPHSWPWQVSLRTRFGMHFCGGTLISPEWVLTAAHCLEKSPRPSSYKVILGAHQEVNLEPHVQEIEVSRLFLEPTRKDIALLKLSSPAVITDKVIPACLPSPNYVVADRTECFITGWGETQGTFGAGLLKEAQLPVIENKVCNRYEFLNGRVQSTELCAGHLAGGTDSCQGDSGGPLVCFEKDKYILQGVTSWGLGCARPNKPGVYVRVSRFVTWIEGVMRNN
T1 sequence (P00747 97-580 partner limits assumed): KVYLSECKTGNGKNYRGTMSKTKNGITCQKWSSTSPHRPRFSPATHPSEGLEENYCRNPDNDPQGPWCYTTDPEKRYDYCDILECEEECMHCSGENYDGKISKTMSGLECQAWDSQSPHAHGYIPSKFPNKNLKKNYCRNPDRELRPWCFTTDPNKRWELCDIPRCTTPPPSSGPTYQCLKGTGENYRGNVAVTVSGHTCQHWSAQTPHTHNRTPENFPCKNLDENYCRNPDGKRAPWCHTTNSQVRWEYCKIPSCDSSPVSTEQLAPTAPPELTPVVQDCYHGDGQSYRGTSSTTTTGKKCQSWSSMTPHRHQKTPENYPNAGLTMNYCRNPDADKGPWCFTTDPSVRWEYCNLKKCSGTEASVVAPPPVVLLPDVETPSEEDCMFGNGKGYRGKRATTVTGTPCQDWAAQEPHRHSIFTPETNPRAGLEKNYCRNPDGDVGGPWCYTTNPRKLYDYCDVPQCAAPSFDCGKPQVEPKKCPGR
Method for bovine trypsin: Determination of inhibition activity against S-2238 decomposition
An inhibitor sample is dissolved in a 0.05M Tris-imidazole buffer solution (pH=8.1) and 125 μl of a 1 mM S-2238 solution is added to make the total volume to 1.20 ml. The mixture is incubated at a temperature of 37° C. for 5 minutes in a constant temperature bath. To this mixture, 0.05 ml of bovine trypsin is added and the absorbance, at 405 nm, of the p-nitroaniline formed per minute is determined at a temperature of 37° C. by using the so-called initial velocity method. Thus, the concentration I50 (μmol) of the inhibitor sample, at which the absorbance is one half (i.e., 1/2) of that obtained in the absence of the inhibitor sample, is determined.
Method for human plasma kallikrein: Determination of inhibition activity for S-2302 decomposition
An inhibitor sample is dissolved in a 0.05M Tris-hydrochloric acid buffer solution (pH=7.8) to make the total volume to 400 μl. To this solution, 50 μl of a 2 mM S-2302 solution is added and the mixture is incubated at a temperature of 37° C. for 5 minutes in a constant temperature bath. Then, 50 μl of a 0.12 unit/ml human plasma kallikrein is added and the mixture is incubated at a temperature of 37° C. for 5 minutes. Thereafter, 50 μl of 50% acetic acid is added to terminate the reaction. The absorbance of the p-nitroaniline formed in the reaction mixture is measured at 405 nm. Thus, the concentration I50 (μmol) of the inhibitor sample, at which the absorbance is one half (i.e., 1/2) of that obtained in the absence of the inhibitor sample, is determined.

For `NCc1ccc(C(=O)N[C@@H](Cc2ccc(OCc3ccccc3)cc2)C(=O)NCCc2ccccc2)cc1` [compound 78], the IC50 on human plasmin [1] was 3.8 µM; on human plasmin [2], 0.75 µM; against bovine thrombin [3], > 50 µM; on bovine thrombin [4], > 50 µM; at bovine trypsin, 9.2 µM; on human plasma kallikrein, 100 µM. Besides, the IC50 on human urokinase is > 200 µM.
`CC1CCCC(NC(=O)[C@H](Cc2ccc(OCc3ccccc3)cc2)NC(=O)c2ccc(CN)cc2)C1C` (stereo partly drawn) [compound 82]: the IC50 was 8.5 µM on human plasmin [1] (setting [5]); 2.9 µM on human plasmin [2]; > 50 µM on bovine thrombin [3] (setting [6]); > 25 µM at bovine thrombin [4] (setting [7]); 7 µM at bovine trypsin; 40 µM on human plasma kallikrein. In addition, the IC50 at human urokinase was > 400 µM.
Regarding `CC(=O)c1ccc(NC(=O)[C@H](Cc2ccc(OCc3ccccc3Cl)cc2)NC(=O)[C@H]2CC[C@H](CN)CC2)cc1` [compound 83], the IC50 at human plasmin [1] is 0.89 µM; on human plasmin [2], 0.21 µM; on bovine thrombin [3] (setting [6]) it was > 200 µM; against bovine thrombin [4], > 50 µM; at bovine trypsin it was 1.5 µM; at human plasma kallikrein, 0.51 µM. For the same compound, the IC50 on human urokinase was 58 µM.
For the compound `CCOC(=O)c1ccc(COc2ccc(C[C@H](NC(=O)[C@H]3CC[C@H](CN)CC3)C(=O)Nc3ccc(C(C)=O)cc3)cc2)cc1` [compound 86], the IC50 on human plasmin [1] was 0.95 µM; on human plasmin [2], 0.35 µM; on bovine thrombin [3] (setting [6]), > 100 µM; at bovine thrombin [4] it was > 50 µM; on bovine trypsin, 0.97 µM; at human plasma kallikrein, 0.42 µM. Further, the IC50 on human urokinase is 23 µM.
`NCc1ccc(C(=O)N[C@@H](Cc2ccc(OCc3ccccc3)cc2)C(=O)NC2CCC(O)CC2)cc1` (stereo partly drawn) [compound 88]: the IC50 on human plasmin [1] is 33 µM; on human plasmin [2], > 20 µM; at bovine thrombin [3] (setting [6]), > 200 µM; on bovine thrombin [4], > 20 µM; at bovine trypsin, 52 µM; at human plasma kallikrein, 120 µM. The IC50 on human urokinase is > 200 µM.
In the case of `NCC1CCC(C(=O)NC(Cc2ccc(OCc3cccc(Cl)c3)cc2)C(=O)Nc2cccc(S(N)(=O)=O)c2)CC1` (stereo not drawn) [compound 93], the IC50 at human plasmin [1] was 1.6 µM; at human plasmin [2], 0.32 µM; on bovine thrombin [3] (setting [6]), > 200 µM; against bovine thrombin [4], > 100 µM; at bovine trypsin, 2.5 µM; at human plasma kallikrein it was 1.2 µM. Besides, at human urokinase, the IC50 is 78 µM.
Turning to `CC1CCC(NC(=O)C(Cc2ccc(OCc3cccc(Cl)c3)cc2)NC(=O)C2CCC(CN)CC2)CC1C` (stereo not drawn) [compound 102], the IC50 on human plasmin [1] is 0.69 µM; at human plasmin [2] it was 0.16 µM; on bovine thrombin [3] (setting [6]), > 400 µM; on bovine thrombin [4], > 50 µM; on bovine trypsin it was 1.3 µM; at human plasma kallikrein, 3.5 µM. In addition, the IC50 on human urokinase turned out to be 320 µM.
Turning to `CCOC(=O)C1CCCC(NC(=O)[C@H](Cc2ccc(OCc3ccc(F)cc3)cc2)NC(=O)c2ccc(CN)cc2)C1` (stereo partly drawn) [compound 105], the IC50 was 4.2 µM at human plasmin [1] (setting [5]); 2.6 µM at human plasmin [2]; > 50 µM at bovine thrombin [3] (setting [6]); > 50 µM at bovine thrombin [4] (setting [7]); 2.5 µM at bovine trypsin; 40 µM on human plasma kallikrein. For the same compound, the IC50 on human urokinase is > 200 µM.
On to `CC1CCC(NC(=O)C(Cc2ccc(Oc3ccc([N+](=O)[O-])cc3)cc2)NC(=O)c2ccc(CN)cc2)CC1C` (stereo not drawn) [compound 109], for which the IC50 is 0.58 µM on human plasmin [1]; 0.27 µM at human plasmin [2]; > 50 µM on bovine thrombin [3] (setting [6]); > 40 µM on bovine thrombin [4]; 0.43 µM at bovine trypsin; 20 µM at human plasma kallikrein. The IC50 at human urokinase was > 200 µM.
Take `CC(=O)c1ccc(NC(=O)C(Cc2ccc(OCc3ccccc3)cc2)NC(=O)c2ccc(CN)cc2)cc1` (stereo not drawn) [compound 118]: the IC50 at human plasmin [1] was 3.4 µM; at human plasmin [2], 0.77 µM; on bovine thrombin [3] (setting [6]), > 50 µM; against bovine thrombin [4], > 50 µM; on bovine trypsin, 3 µM; at human plasma kallikrein, 3.7 µM. Besides, the IC50 at human urokinase is > 150 µM.
For `CC(=O)c1ccc(NC(=O)C(Cc2ccc(Oc3cc(Cl)ccc3[N+](=O)[O-])cc2)NC(=O)C2CCC(CN)CC2)cc1` (stereo not drawn) [compound 123], the IC50 on human plasmin [1] is 0.39 µM; on human plasmin [2] it was 0.28 µM; on bovine thrombin [3] (setting [6]), 95 µM; on bovine thrombin [4], > 50 µM; on bovine trypsin it was 0.71 µM; at human plasma kallikrein, 0.078 µM. Moreover, the IC50 at human urokinase turned out to be 26 µM.
As for `NC[C@H]1CC[C@H](C(=O)N[C@@H](Cc2ccc(OCc3ccc(Cl)c(Cl)c3)cc2)C(=O)Nc2ccncc2)CC1` [compound 127], the IC50 on human plasmin [1] is 1.5 µM; at human plasmin [2], 0.29 µM; at bovine thrombin [3] (setting [6]), > 200 µM; against bovine thrombin [4], > 50 µM; at bovine trypsin, 1.8 µM; on human plasma kallikrein, 0.41 µM. The IC50 on human urokinase amounted to 20 µM.
As for `NC[C@H]1CC[C@H](C(=O)N[C@@H](Cc2ccc(OCc3cccc(Cl)c3)cc2)C(=O)Nc2ccnc(Cl)c2)CC1` [compound 128], the IC50 on human plasmin [1] was 1.4 µM; on human plasmin [2], 0.3 µM; at bovine thrombin [3] (setting [6]), > 1000 µM; on bovine thrombin [4], > 100 µM; at bovine trypsin, 1.3 µM; at human plasma kallikrein, 0.44 µM. For the same compound, the IC50 at human urokinase is 82 µM.
Turning to `CC(=O)c1ccc(NC(=O)[C@H](Cc2ccc([N+](=O)[O-])cc2)NC(=O)[C@H]2CC[C@H](CN)CC2)cc1` [compound 130, N-(trans-4-aminomethylcyclohexylcarbonyl)-4-nitro-L-phenylalanine 4-acetylanilide hydrochloride], the IC50 at human plasmin [1] is 15 µM; on human plasmin [2], 7.1 µM; on bovine thrombin [3] (setting [6]), > 400 µM; on bovine thrombin [4], > 400 µM; at bovine trypsin, 0.5 µM; on human plasma kallikrein, 8.3 µM. Moreover, the IC50 at human urokinase was 34 µM.
With `NCc1ccc(C(=O)N[C@@H](Cc2ccccc2)C(=O)Nc2cccc(C(F)(F)F)c2)cc1` [compound 131], the IC50 at human plasmin [1] is 170 µM; on human plasmin [2], 56 µM; at bovine thrombin [3] (setting [6]) it was > 200 µM; on bovine thrombin [4], > 500 µM; at bovine trypsin it was 4.4 µM; at human plasma kallikrein, 17 µM. Also, the IC50 at human urokinase is > 250 µM.

The values above are taken from patent publication US4895842A, “Phenylalanine derivative and proteinase inhibitor” (Shosuke Okamoto, priority 1985, dated 1990).
